Paper PMC6099102, “Effect of the Nature of Donor Atoms on the Thermodynamic, Kinetic and Relaxation Properties of Mn(II) Complexes Formed With Some Trisubstituted 12-Membered Macrocyclic Ligands” (Frontiers in Chemistry, 2018)
“And” between values parts separate entries of the source, which are not always exact repeats. Equal entries are not always repeated.

How the values were obtained:
[1] = Protonation constants of the ligands by pH-potentiometric titration; format: physicochemical; settings: I = 0.15 M NaCl, 25 °C; for Σ log K2H: log K1H + log K2H
Method: The concentration of the ligand solutions was determined by pH-potentiometric titration in the presence and absence of an excess (5–10 fold) of MnCl2. For determining the protonation constants of the investigated ligands, pH-potentiometric titrations were made by means of 0.2 M standardized NaOH in 2 and 3 mM ligand solutions in the pH-range of 1.75–11.85. All equilibrium measurements were performed at a constant 0.15 M NaCl ionic strength at 25 °C. The protonation and the stability constants of the Mn(II) complexes were determined by pH-potentiometric titrations (DOTP, DO3A, PCTA, ODO3A, DO3P) while owing to the slow formation rates of Mn(II) complexes formed with amide type ligands, the stability constants of DOTAM, DOTMA, DO3AM^H, PC3AM^H, PC3AM^Gly, PC3AM^Pip complexes were determined by out-of-cell pH-potentiomertry in combination with ^1H relaxometry. The metal-to-ligand concentration ratio in the solutions was 1:1. For the calculation of protonation constants of the ligands and the log KMnL and log KMnLHi values of the complexes, mL–pH data pairs (50–180), obtained in the pH range of 1.75–11.85 or r1obs-pH data pairs (10–15 batch samples) obtained in the pH range of 2–4.5 were used (the samples were equilibrated for 4–7 days). The equilibrium constants characterizing the deprotonation that occurs at basic pH were determined from the data obtained via direct pH-potentiometric titrations performed on the pre-formed complexes.
The pH-potentiometric titrations were carried out with a Methrohm 888 Titrando titration workstation using a Metrohm-6.0233.100 combined electrode. The samples (6.00 mL) were thermostated at 25 °C. The samples were stirred and kept under inert gas (N2) to avoid the effect of CO2. KH-phthalate (pH = 4.005) and borax (pH = 9.177) buffers were used for the pH-calibration. The method proposed by Irving et al. was used for the calculation of H^+ concentrations from the measured pH values (Irving et al., [1967]). A 0.01 M HCl (I = 0.15 M set with NaCl) solution was titrated with standardized NaOH solution of known concentration (approx. 0.2 M). The correction factor obtained as difference of calculated pH and measured pH values was used to calculate the [H^+] in the samples. The ionic product of water was determined from the same titrations (HCl/NaOH) from the data collected in the pH range of 11.20–11.85.
The protonation and complexation equilibria of the macrocyclic ligands and their Mn(II) complexes have been studied by pH-potentiometric and relaxometric methods in the presence of 0.15 M NaCl whose ionic strength mimics the physiological conditions. The protonation constants of the ligands were evaluated by fitting the pH-V(mL) base data pairs collected in the pH-potentiometric titrations. The protonation equilibria of the ligands can be described by Equation (2). (a comparison of previously published log K^H data available in the Supplementary Material) together with the constants of H4DOTA, cis- and trans-H2DO2A derivatives given for comparison. (2) KiH=[HiL]/[Hi-1L][H^+],i=1,2,…

[2] = Dissociation kinetics of the Mn(II) complexes (acid catalyzed dissociation, metal or ligand exchange reactions); format: physicochemical; settings: I = 0.15 M NaCl, 25 °C
Method: The dissociation reactions were followed by UV-vis spectrophotometry at 269 nm for the pyclen derivatives or at 300 nm for other complexes in the pH range of 3.6–5.0 for the exchange reactions with Cu(II) and up to pH = 6.0 when Zn(II) was used as a ligand scavenger. The acid catalyzed dissociation reactions were performed in the HCl concentration range of 0.05–1.0 M. The concentration of the complexes in the samples was 0.25 mM, while the concentration of the exchanging metal ion in the metal initiated transchelation reactions was 10–40 times higher to ensure pseudo-first-order conditions. Relaxometry was used to follow the transchelation reactions of [Mn(DOTAM)]^2+, [Mn(DO3AM^H)]^2+, [Mn(DO3A)]^−, [Mn(PCTA)]^− and [Mn(ODO3A)]^− with Cu(II)/Zn(II) ions in the pH range of 3.6–5.5 (Figures S17–S19 in Supplementary Material). The concentration of the complexes in these samples was set to 1.0–2.0 mM to achieve relatively large change during the dissociation reaction. […] The temperature was maintained at 25 °C and the ionic strength of the solutions was kept constant at 0.15 M with NaCl. N,N′-dimethyl- (DMP) and N-methyl-piperazine (NMP) buffers (log K2H = 4.18 and 4.90 at 25 °C and I = 0.15 M NaCl, respectively) were used at 0.05 M concentration to keep the pH constant. The pseudo-first-order rate constants (kobs) were calculated by fitting the absorbance or relaxivity-time data pairs to Equation (1) (1) Xt=(X0-Xe)e^-kobst+Xe where Xt, X0, and Xe are the absorbance or relaxivity at time t, at the start and at equilibrium, respectively. The calculations were performed with the computer program Micromath Scientist, version 2.0 (Salt Lake City, UT, USA) using a standard least-squares procedure.
The kinetic inertness of the Mn(II) complexes is the other important parameter for the complexes considered for use in vivo. The inertness of Mn(II) complexes formed with trisubstituted 12-memberd macrocyclic ligands were characterized either by studying the rates of acid catalyzed dissociation or by studying transmetallation reactions occurring between the complexes and a suitable exchanging metal ion such as Zn(II) or Cu(II). The demetallation reactions of labile complexes were performed at high pH by following the ligand exchange reactions with trans-CDTA and DTPA ligands. The demetallation reactions were studied in the presence of a large Cu(II)/Zn(II)/trans-CDTA/DTPA excess or by using high acid concentration in order to ensure pseudo-first-order conditions (Equation 6). Scheme 1 outlines all the possible dissociation pathways for the Mn(II) complexes. […] The reactions of the released Mn(II) and L ligand with the exchanging L' and M' reactants are assumed to be very rapid.
The rate of dissociation can be expressed by the Equation (6), where kobs is the pseudo-first-order rate constant and [Mn(L)]t is the total concentration of the species containing [Mn(L)] complex. The [Mn(L)]t will differ slightly depending on the experimental conditions (in the presence of a large metal or ligand excess). As [Mn(L)]t = [Mn(L)] + [Mn(HL)] + [Mn(H2L)] + [Mn(L)M] + [Mn(L)(L')] + [Mn(HL)(L')] for reactions performed at high pH (in the pH range of 3.0–5.0 often applied in Cu(II) exchange reactions) will involve fewer protonated species while the acid catalyzed dissociation reactions run in the strongly acidic media (0.1–1.0 M acid concentration range) predominantly contain protonated species ([Mn(L)]t = [Mn(L)]+[Mn(HL)]+[Mn(H2L)]). (6) -d[MnL]t/dt=kobs[MnL]t
By taking into account the various complex species and the possible reaction pathways as well as the protonation and stability constants of the reactive intermediates, the following equation (Equation 7) can be derived to describe the rates of dissociation. […]

[3] = ref Rolla et al. ([2013]); cited from earlier work

log K1H ([1]; ligand protonation constant) | log K2H ([1]; ligand protonation constant) | log K3H ([1]; ligand protonation constant) | log K4H ([1]; ligand protonation constant) | log K5H ([1]; ligand protonation constant) | Σ log K2H [1] | log K6H ([1]; ligand protonation constant) | t1/2 0.1 M HCl ([2]; half-life of dissociation calculated for 0.1 M H+) [min] | Compound | k1 (proton-assisted dissociation) [2] | r1p [3] [mM⁻¹ s⁻¹] | k1 (proton-assisted dissociation) ([2]; ligand exchange reaction with trans-CDTA^4− or DTPA^5− in the pH range 8-9.5) [M⁻¹ s⁻¹] | k1 (proton-assisted dissociation) ([2]; stopped-flow in highly acidic condition, proton-assisted dissociation of the [Mn(HL)] complex)
10.07 (5) | 8.93 (6) | 4.43 (9) | 4.11 (7) | 1.88 (7) | 19.00 | – | – | O=C(O)CN1CCNCCN(CC(=O)O)CCN(CC(=O)O)CC1 [DO3A] | 0.45 M⁻¹ s⁻¹ | 1.30 | – | –
12.55 (2) | 11.37 (1) | 8.57 (2) | 7.02(2) | 5.36 (2) | 23.92 | 1.84 (2) | – | O=P(O)(O)CN1CCNCCN(CP(=O)(O)O)CCN(CP(=O)(O)O)CC1 [DO3P] | – | – | 240000 | –
8.76 (3) | 4.10 (4) | – | – | – | 12.86 | – | – | NC(=O)CN1CCN(CC(N)=O)Cc2cccc(n2)CN(CC(N)=O)CC1 [PC3AM^H] | 0.0107 M⁻¹ s⁻¹ | – | – | –
9.97 (3) | 6.73 (5) | 3.22 (6) | 1.40 (9) | – | 16.70 | – | – | O=C(O)CN1CCN(CC(=O)O)Cc2cccc(n2)CN(CC(=O)O)CC1 [PCTA] | – | – | – | 0.112 M⁻¹ s⁻¹ and 0.109 M⁻¹ s⁻¹
– | – | – | – | – | – | – | 25 | O=C(CN1CCN(CC(=O)N2CCCCC2)Cc2cccc(n2)CN(CC(=O)N2CCCCC2)CC1)N1CCCCC1.[Mn+2] [[Mn(PC3AM^Pip)]^2+] | (4.64 ± 0.04) × 10^−3 M^−1s^−1 | – | – | –
